In patent publication US4483867A, “Antifibrinolytically active derivatives of tranexamic acid” (KabiVitrum AB, priority 1981, dated 1984):
Where a name gives a salt, the structure may show the parent alone.

Assays:
[1] = test system: fibrinolytic activity induced by porcine tissue activator; assay: Antifibrinolytic activity in chandler loop (inhibition of clot lysis induced by porcine tissue activator); assay type: biochemical, human blood; porcine tissue activator; conditions: for Percent inhibition of fibrinolytic activity induced by porcine tissue activator: 1 micromole/liter, human blood, 20 PU/ml porcine tissue activator, six hours, mean
Description: (§1) In the biological tests described in sections A, B and C below, the test compounds were used in trans form and in the form of hydrochloride salt. The test results given in Tables 1 and 2 are average values.
The antifibrinolytic properties of tranexamic acid and a number of compounds of the invention were tested in an artificial circulating blood system, the chandler loop (Chandler, A. B., In vitro thrombolytic coagulation of blood. A method for producing a thrombus. Lab.Invest. 7, 110, 1958.) Human blood was mixed with ^125 I-labelled fibrinogen, divided into 1.5 ml portions and filled into plastic tubings. After recalcification the loops were rotated for 24 hours during which ^125 I-labelled clots were formed. Fibrinolysis as measured with release of ^125 I-labelled fibrin degradation products from the clot, was initiated by adding 20 PU/ml of porcine tissue activator to the loops. Clot lysis was followed during six hours and the cumulative release of ^125 I FDP was plotted v.s. time of lysis. […] The effect on the clot lysis of compounds of the invention was tested in this system and compared to the inhibitory effect of tranexamic acid. No significant difference (p>0.05) between the antifibrinolytic effect of tranexamic acid and the tested compounds of the invention was found in this test system.

[2] = In vitro test - hydrolysis in human plasma (half life); assay type: in vitro ADME; conditions: 37° C., 2.3·10^-3 M, trans form, hydrochloride salt, HPLC, UV 210 nm
Excerpt: as §1
(§2) The compounds of the present invention, which are esters of tranexamic acid, are converted to tranexamic acid in vivo either during the absorption through the gastro-intestinal wall or by enzymes present in the blood. In order to test the stability of compounds of the invention the half life in human plasma of a number of compounds of the invention was compared to the half life of the same ester in a phosphate buffer of the same pH. The half life, that is, the time within which the amount of unhydrolysed test compound is reduced by 50%, was calculated from the decrease of intact test compound with time. This decrease of intact test compound was monitored by UV-detection at 210 nm using high performance liquid chromatography (HPLC) in the reversed phase mode with mixtures of methanol and phosphate buffer as eluents. The stability in plasma was studied by addition of […] of plasma thermostated to 37° C. The concentration of the test compound in plasma amounted to 2.3·10^-3 M. The plasma samples were injected directly into the column after filtration. The half life in buffer solution were determined in the same way except that no filtration was needed.

[3] = In vitro test - hydrolysis in phosphate buffer pH 7.5 (half life); assay type: physicochemical; conditions: trans form, hydrochloride salt, HPLC, UV 210 nm
Excerpt: as §1, §2

[4] = In vivo test - absorption in rats after oral administration (tranexamic acid recovered in urine); conditions: for Absorption after oral administration, in words: compared to tranexamic acid
Description: as §1
Rats were chosen to study the absorption after oral administration of compounds of the invention which are esters of tranexamic acid. Absorption of tranexamic acid itself is very poor in rats.
The determination of absorption in the rats was performed in the following way: Male rats in groups of three or four were given the test compound by gavage (1 mmol/kg-0.1 mmol/kg, 2 ml/kg). The urine was collected at the intervals 0-6, 6-24, 24-48 and 48-72 hours. At the end of each interval the cages were rinsed with 20 ml of distilled water, which also was collected and analysed. The urine sampls were then analysed for their content of tranexamic acid by a gaschromatographic method according to Wessman J., Stromberg S., Anal. Chem. 49 (1977) 369. The results are shown in table 1, where the total absorption is given as the molar amount of tranexamic acid which was recovered in the urine samples compared to the amount of administered test compound, also calculated as tranexamic acid.

[5] = normally, clinical use; cited from earlier work
[6] = large oral intake, about 3 to about 6 grams per 24 hours; cited from earlier work

| Compound | Percent inhibition of fibrinolytic activity induced by porcine tissue activator [1] [%] | half-life at 2300 µM [2] [min] | half-life at 2300 µM [3] [h] | also measured |
| --- | --- | --- | --- | --- |
| CC(C)(C)C(=O)OCOC(=O)[C@H]1CC[C@H](CN)CC1 [Example 1, pivaloyloxymethyl trans-4-aminomethylcyclohexanecarboxylate hydrochloride] | 19.3 ± 4.3 | 5 | – | – |
| CCOC(=O)OC(C)OC(=O)[C@H]1CC[C@H](CN)CC1 (stereo partly drawn) [Example 3, 1-(ethyloxycarbonyloxy)ethyl trans-4-aminomethylcyclohexanecarboxylate hydrochloride] | 23.4 ± 5.1 | 1.5 | 90 | – |
| CC(C)OC(=O)OC(C)OC(=O)[C@H]1CC[C@H](CN)CC1 (stereo partly drawn) [Example 4, 1-(isopropyloxycarbonyloxy)ethyl trans-4-aminomethylcyclohexanecarboxylate hydrochloride] | 25.8 ± 5.5 | – | – | Absorption after oral administration, in words [4]: absorbed to a very high degree |
| CC(=O)OC(C)OC(=O)[C@H]1CC[C@H](CN)CC1 (stereo partly drawn) [Example 5, 1-(acetyloxy) ethyl trans-4-aminomethylcyclohexanecarboxylate] | 19.5 ± 4.7 | 9 | – | – |
| CC(C)C(=O)OCOC(=O)[C@H]1CC[C@H](CN)CC1 [Example 6, isobutyryloxymethyl trans-4-aminomethylcyclohexanecarboxylate] | 32.4 ± 5.3 | 0.5 | – | – |
| CC(OC(=O)C(C)C)OC(=O)[C@H]1CC[C@H](CN)CC1 (stereo partly drawn) [Example 7, 1-(isobutyryloxy)ethyl trans-4-aminomethylcyclohexanecarboxylate] | 23.8 ± 5.7 | – | – | – |
| NC[C@H]1CC[C@H](C(=O)OCOC(=O)[C@H]2CC[C@H](CN)CC2)CC1 [Example 11, methandiol bis-(trans-4-aminomethylcyclohexanecarboxylate) dihydrochloride] | – | 1.5 | 26 | – |
| CC(OC(=O)[C@H]1CC[C@H](CN)CC1)OC(=O)[C@H]1CC[C@H](CN)CC1 [Example 13, 1,1-Ethandiol bis-(trans-4-aminomethylcyclohexanecarboxylate) dihydrochloride] | – | 11 | 70 | – |
| CN(C)C(=O)C(OC(=O)[C@H]1CC[C@H](CN)CC1)OC(=O)[C@H]1CC[C@H](CN)CC1 [Example 16, 2,2-dihydroxy-N,N-dimethylacetamide bis-(trans-4-aminomethylcyclohexanecarboxylate)] | 32.2 ± 4.7 | – | – | – |
| NC[C@H]1CC[C@H](C(=O)O)CC1 [Tranexamic acid, trans-4-aminomethylcyclohexanecarboxylic acid] | 25.6 ± 3.9 | – | – | Absorption of administered tranexamic acid, oral route [5]: 35-40%; Antifibrinolytic effect / inhibition of clot lysis, in words ([1]; chandler loop): clot lysis was inhibited in a dose dependent manner; Undesired side effects, in words [6]: causes in some patients undesired side effects in the gastro-intestinal tract; Absorption after oral administration, in words [4]: very poor; dose excreted at 72 h ([4]; rat, po, male rats, by gavage, 1 mmol/kg-0.1 mmol/kg, 2 ml/kg, tranexamic acid recovered in urine 0-72 hours vs. amount administered, trans form, hydrochloride salt, read-out: Absorption Mole % (average values of four tests)): 11 ± 1.4% |
